Experimental data reported in patent US9182350B2, “Naphthalene-based two-photon fluorescent probes, preparation method and use thereof” (DALIAN UNIVERSITY OF TECHNOLOGY, priority 2012, dated 2015).
In brackets after ≈: the same amount, converted by molar mass.

Legend:
[1] = system: non-tumor tissue sections of mice' lungs; test: Two-photon fluorescence labeling of non-tumor tissue sections; settings: sections soaked in probe PBS solution (10 μM), 30 min
Procedure: (§1) FIG. 8 is the two-photon fluorescent imaging of fluorescent probe compound A4 for the tumor tissues and non-tumor tissues of mice' lungs in example 11. The sections of tumor tissues and non-tumor tissues of mice' lungs were incubated with 4 μL of A4 (10.0 μM). The representative areas were selected and imaged with oil-immersion objective lens (100×). The resulting images are representative of replicate experiments (n=3). FIG. 8 (a1) and (a2) are the confocal images of tumor tissue sections of mice' lungs after adding probe A4, FIG. 8 (b1) and (b2) are the confocal images of non-tumor tissue sections of mice' lungs after adding probe A4. The images of FIG. 8 (a1) and (b1) were recorded with the emission in the range of 500-550 nm. The images of FIG. 8 (a2) and (b2) were recorded with the emission in the range of 570-650 nm.
(§2) FIG. 11 is two-photon fluorescent imaging of fluorescent probe compound A5 for the tumor tissues and non-tumor tissues of mice' lungs in example 15. The sections of tumor tissues and non-tumor tissues of mice' lungs were incubated with 4 μL of […] (10.0 μM). The representative areas were selected and imaged with oil-immersion objective lens (100×). […] The images of FIG. 11 (a1) and (b1) were recorded with the emission in the range of 500-550 nm. The images of FIG. 11 (a2) and (b2) were recorded with the emission in the range of 570-650 nm.
(§3) Tumor tissue sections and non-tumor tissues sections of mice' lungs were soaked in the compound A2 PBS solution (10 μM), respectively. After 30 min, take out the section, mounting, safekeeping, the fluorescence images were obtained by two-photon spectral confocal multiphoton microscope. […] The images were recorded with the emission in the range of 500-550 nm.
as §3, with “A4” for “A2”, “nm. […]” for “nm.”

[2] = physchem; settings: water
From the text: (§8) The absorbance of different concentrations of compound A2 solution at maximum absorption wavelength was detected. The results are representative value from replicate experiments (n=3).
(§9) The absorbance of different concentrations of compound A4 solution at maximum absorption wavelength was detected. The results are representative value from replicate experiments (n=3).
(§10) The experiment instrument is Agilent 8453 U-V spectrophotometer.

[3] = system: tumor tissue sections of mice' lungs; test: Two-photon fluorescence labeling of tumor tissue sections; settings: sections soaked in probe PBS solution (10 μM), 30 min
Procedure: as §1, §2, §3
as §3, with “A4” for “A2”, “nm. […]” for “nm.”

[4] = Water solubility experiment (absorbance vs concentration at maximum absorption wavelength)
From the text: as §8, §9, §10

[5] = system: HeLa cells; test: Two-photon fluorescence labeling of cancer cells; type: cell-based; settings: 4 μL probe-DMSO solution (4 μM), 60 min, 5% CO2, 37° C., PBS wash
Procedure: (§4) FIG. 2 is the two-photon fluorescent imaging of fluorescent probe compound A1 in the tumor cells and non-tumor cells in example 2. Hela cells and HEK293 cells were incubated with 4 μL of A1-DMSO (4.0 μM) for 60 min in 5% CO2 at 37° C. The representative areas were selected and imaged with oil-immersion objective lens (100×). The resulting images are representative of replicate experiments (n=3). The images were recorded with the emission in the range of 500-550 nm. FIG. 2 (a) is confocal image of Hela cell, FIG. 2 (b) is confocal image of HEK293 cell.
(§5) FIG. 10 is two-photon fluorescent imaging of fluorescent probe compound A2 in the tumor cells and non-tumor cells in example 14. […] The images of FIG. 10 (a1) and (b1) were recorded with the emission in the range of 500-550 nm. The images of FIG. 10 (a2) and (b2) were recorded with the emission in the range of 570-650 nm.
(§6) Compound A1 was used, which was synthesized in the example 1. […] The fluorescence imaging was obtained with a two-photon spectral confocal multiphoton microscope. […] The images were recorded with the emission in the range of 500-550 nm.
(§7) Compound A5 was used, which was synthesized in the example 13. […] The fluorescence imaging was obtained with a two-photon spectral confocal multiphoton microscope. […] The images of FIG. 10(a1) and FIG. 10(b1) were recorded with the emission in the range of 500-550 nm. […]

[6] = system: HEK 293 cells; test: Two-photon fluorescence labeling of non-cancer cells; type: cell-based; settings: 4 μL probe-DMSO solution (4 μM), 60 min, 5% CO2, 37° C., PBS wash
Procedure: as §4, §5, §6, §7

Compound | fluorescence signal in non-tumor tissue sections of mice' lungs (two-photon confocal imaging) [1] | solubility [2] [µM] | fluorescence signal in tumor tissue sections of mice' lungs (two-photon confocal imaging) [3] | solubility [4] [µM] | fluorescence signal in HeLa cells (two-photon confocal imaging) [5] | fluorescence signal in HEK 293 cells (two-photon confocal imaging) [6]
COc1ccc2c(c1)c(CC(=O)NCCCCCCNc1ccc3c4c(cccc14)-c1nc4ccccc4nc1-3)c(C)n2C(=O)c1ccc(Cl)cc1 [Compound A4] | no any fluorescence signals | 24 (≈ 17 µg/mL) | strong fluorescence signals |  |  | 
COc1ccc2c(c1)c(CC(=O)NCCCCCCNc1ccc3c4c1cccc4c(=O)n1c4ccccc4nc31)c(C)n2C(=O)c1ccc(Cl)cc1 [Compound A2] | no any fluorescence signals |  | strong fluorescence signals | 5 (≈ 3.62 µg/mL) |  | 
COc1ccc2c(c1)c(CC(=O)NCCCCCCNc1ccc3c4c(cccc14)C(=O)N(C)C3=O)c(C)n2C(=O)c1ccc(Cl)cc1 [Compound A1] |  |  |  |  | strong fluorescence signals | no any fluorescence signal
COc1ccc2c(c1)c(CC(=O)NCCCCCCNc1ccc3c4c(cccc14)-c1nc4ccc([N+](=O)[O-])cc4nc1-3)c(C)n2C(=O)c1ccc(Cl)cc1 [Compound A5] | no any fluorescence signals |  | strong fluorescence signals |  | strong fluorescence signals | no any fluorescence signal
